Measured values published in paper PMC6934184, “Selective DNA-PKcs inhibition extends the therapeutic index of localized radiotherapy and chemotherapy” (The Journal of Clinical Investigation, 2019).

Experiments:
Huh7 = experiment: clonogenic survival with doxorubicin; assay type: cell-based, human; conditions: NU5455 1 μM, 24 hours
MCF7 cells = experiment: γH2AX foci nuclear fluorescence after 2.5 Gy; assay type: cell-based, Human; conditions: 1 μM, 0–24 hours after irradiation
Description: Cell line γH2AX and 53BP1 foci immunofluorescence and quantitation
Cells grown on coverslips or in 96-well plates were treated with 1 or 5 µM NU5455 or DMSO 1 hour prior to irradiation (0, 2.5 or 10 Gy) using an RS 320 X-ray Research System (Gulmay Medical). At set timepoints (15 or 30 minutes, or 1, 4, 5, 6, or 24 hours post-irradiation), cells were washed and fixed in methanol or 3% paraformaldehyde (PFA). Cells were blocked and permeabilized in 1% (v/v) goat serum/1% (w/v) BSA/0.1% (v/v) Triton X100 or 0.1% (v/v) Triton X100 containing 10% (w/v) dried milk powder and 2% (w/v) bovine serum albumin, followed by incubation with antibodies against γH2AX (JBW301, Millipore #05-636) and/or 53BP1 (Cell Signaling #4937). Cells were then washed and incubated with Alexa Fluor 488 goat anti-mouse and/or Alexa Fluor 568 goat anti -rabbit antibodies (A11001 or A11011 respectively, Invitrogen). In A549 and Calu-6, cells were Hoechst stained (5 µg/ml), and the average numbers of γH2AX and 53BP1 foci per cell were quantified from 400 nuclei per sample using an In Cell analyzer 1000 (GE Healthcare). For MCF7 cells, coverslips were mounted using Vectashield mounting medium with DAPI (Vector Labs) and imaged using a Leica TCS SPE confocal fluorescence microscope. Total fluorescence intensity was determined using ImagePro Plus 5.0 software (Media Cybernetics).
Clonogenic survival assays […]

lung = experiment: radiation-induced lung fibrosis, Masson's trichrome, modified Ashcroft score; assay type: in vivo, C57BL/6 mice; conditions: 30 mg/kg oral 30 min before and 5 h after each of 4 × 5 Gy; 24 weeks
Description: Whole-thorax irradiation (5 Gy) was administered to female C57BL/6 mice (6–8 weeks old) on days 1, 4, 7, and 10 with vehicle or NU5455 treatment. Whole lung sections were stained with Masson’s trichrome to visualize collagen deposition and scored using the modified Ashcroft scale proposed by Hübner et al. ([55]). Further details are provided in Supplemental Methods. […]
combined with 10 Gy thorax irradiation ( n = 6 - 7/group). For whole-thorax irradiation, anaesthetized mice were placed in the supine position in a customized rig. The whole thorax was exposed to X-ray radiation generated by the Gulmay Medical RS320 irradiation system (2.034 Gy/minute). The rest of the body was protected by lead shields. […]
Tumor growth in the remaining mice was monitored by bioluminescent imaging on days 0, 4, 8 and 15 post-treatment. […] Data were analyzed using LivingImage software (PerkinElmer). […]
Tissues were fixed in 4% paraformaldehyde (PFA) and paraffin -embedded. […] One tissue section from each of 3 mice per group was examined, and the whole section (excluding necrotic areas) analyzed using ImageScope analysis software (Aperio Technologies). γH2AX and 53BP1 foci were manually counted in 200 nuclei from each tumor sample. The percentage of γH2AX and 53BP1 positive nuclei in lung epithelial cells was quantified manually in normal lung samples across 5 randomly-chosen fields of view per […]

Structure (SMILES): CN(C(=O)CN1CCOCC1)c1ccc2sc3c(-c4cccc5c(=O)cc(N6CC7CCC(C6)O7)oc45)cccc3c2c1 [NU5455]
- Fold potentiation of doxorubicin (LD80, SER80) (Huh7): 3.5 fold
- number of γH2AX foci (MCF7 cells): remained elevated even at 24 hours
- radiation-induced lung fibrosis (lung): did not exacerbate radiation-induced lung fibrosis
